We go through 13 compounds from patent publication US10669289B2, “Boronic acid derivatives” (MERCK PATENT GMBH, priority 2014, dated 2020).

Usually IC50 stands for the concentration needed to halve the response being measured.

Test [1] deals with human constitutive proteasome (Beta5) (Homo sapiens (Human), UniProt P28074). Nature of the test: Determination of Beta5 activity (fluorescence intensity assay, Suc-LLVY-AMC). The format is biochemical. The method in brief: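 Purified human constitutive proteasome (1.25 nM) preincubated with compounds (30 μM–15 pM) for 20 min (default) or 120 min at 25 °C in 50 mM Tris pH 7.4, 0.03% SDS, 1 mM EDTA, 1% DMSO. Suc-LLVY-AMC substrate at 40 μM, 60 min at 37 °C. Fluorescence read at ex 350/em 450 nm.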

Test [2] has as its target human immuno proteasome (LMP7) (Homo sapiens (Human), UniProt P28062). Nature of the test: Determination of LMP7 activity (fluorescence intensity assay, Suc-LLVY-AMC). Type of test: biochemical. An outline of the steps: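 Fluorogenic Suc-LLVY-AMC cleavage (40 μM substrate, 60 min, 37° C., ex 350/em 450 nm) measured after 0.25 nM human immunoproteasome was exposed to compound at 30 μM–15 pM. Preincubation was 20 min by default or 120 min (long) at 25° C., in Tris pH 7.4 with 0.03% SDS, 1 mM EDTA and 1% DMSO.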

The mark [3] stands for this setting: LMP7 versus Beta5, incubation for 20 minutes.
Where [4] appears, read: LMP7 versus Beta5, long incubation (120 min).

Regarding `C=C(C)C(=O)N(CC)CC(=O)N[C@@H](Cc1ccccc1)B(O)O` [Compound No. 28, [(1R)-1-[[2-[ethyl(2-methylprop-2-enoyl)amino]acetyl]amino]-2-phenyl-ethyl]boronic Acid], the IC50 in test [1] (incubation for 20 minutes) was over 5 µM; in test [2] (incubation for 20 minutes), 0.5 to 5 µM. Besides, in test [2] (setting [3]), the “Selectivity LMP7 vs Beta5” value is recorded as “+ (Selectivity < 50)”.
With `CCN(CC(=O)N[C@@H](Cc1ccc(C)cc1C)B(O)O)C(=O)/C=C/CN(C)C` [Compound No. 105, [(1R)-1-[[2-[[(E)-4-(dimethylamino)but-2-enoyl]-ethyl-amino]-acetyl]amino]-2-(2,4-dimethylphenyl)ethyl]boronic Acid], the IC50 in test [1] (long incubation (120 min)) is over 5 µM; in test [2] (long incubation (120 min)), under 0.05 µM. Moreover, the “Selectivity LMP7 vs Beta5” value in test [2] (setting [4]) is recorded as “+++++ (Selectivity ≥ 150)”.
For `C=CC(=O)N(CC(=O)N[C@@H](Cc1ccc(C)cc1C)B(O)O)c1cc(F)ccc1F` [Compound No. 42, [(1R)-1-[[2-(2,5-difluoro-N-prop-2-enoyl-anilino)acetyl]amino]-2-(2,4-dimethylphenyl)ethyl]boronic Acid], in that order: over 5 µM, under 0.05 µM and “+++++ (Selectivity ≥ 150)”.
Take `C=CC(=O)N(CC(=O)N[C@@H](Cc1ccc(C)cc1C)B(O)O)c1ccc(F)cc1` [Compound No. 2, [(1R)-2-(2,4-dimethylphenyl)-1-[[2-(4-fluoro-N-prop-2-enoyl-anilino)acetyl]amino]ethyl]boronic Acid]: the IC50 is 0.5 to 5 µM in test [1] (incubation for 20 minutes) and under 0.05 µM in test [2] (incubation for 20 minutes). The “Selectivity LMP7 vs Beta5” value in test [2] (setting [3]) is given as “++++ (100 ≤ Selectivity < 150)”.
For the compound `C=CC(=O)N(CC(=O)N[C@@H](Cc1ccsc1)B(O)O)c1ccccc1F` [Compound No. 78, [(1R)-1-[[2-(2-fluoro-N-prop-2-enoyl-anilino)acetyl]amino]-2-(3-thienyl)ethyl]boronic Acid], the IC50 in test [1] (long incubation (120 min)) was over 5 µM; in test [2] (long incubation (120 min)), under 0.05 µM. Also, in test [2] (setting [4]), the “Selectivity LMP7 vs Beta5” value is “+++++ (Selectivity ≥ 150)”.
Regarding `C=CC(=O)N(CC(=O)N[C@@H](Cc1ccc(C)cc1C)B(O)O)c1c(F)cccc1F` [Compound No. 43, [(1R)-1-[[2-(2,6-difluoro-N-prop-2-enoyl-anilino)acetyl]amino]-2-(2,4-dimethylphenyl)ethyl]boronic Acid], the IC50 in test [1] (long incubation (120 min)) is over 5 µM; in test [2] (long incubation (120 min)) it was under 0.05 µM. Moreover, the “Selectivity LMP7 vs Beta5” value in test [2] (setting [4]) is reported as “+++++ (Selectivity ≥ 150)”.
For `C=CC(=O)N(CC(=O)N[C@@H](Cc1ccsc1)B(O)O)c1ccc(CC)cc1` [Compound No. 96, [(1R)-1-[[2-(4-ethyl-N-prop-2-enoyl-anilino)acetyl]amino]-2-(3-thienyl)ethyl]boronic Acid], in that order: 0.5 to 5 µM, under 0.05 µM and “+++++ (Selectivity ≥ 150)”.
For `C=CC(=O)N(CC)CC(=O)N[C@@H](Cc1ccc(C)cc1)B(O)O` [Compound No. 31, [(1R)-1-[[2-[ethyl(prop-2-enoyl)amino]acetyl]amino]-2-(p-tolyl)ethyl]-boronic Acid], the IC50 is 0.5 to 5 µM in test [1] (incubation for 20 minutes) and under 0.05 µM in test [2] (incubation for 20 minutes). Besides, the “Selectivity LMP7 vs Beta5” value in test [2] (setting [3]) is “++++ (100 ≤ Selectivity < 150)”.
For `C#CC(=O)N(C)CC(=O)N[C@@H](Cc1ccc(C)cc1C)B(O)O` [Compound No. 11, [(1R)-2-(2,4-dimethylphenyl)-1-[[2-[methyl(prop-2-ynoyl)amino]-acetyl]amino]ethyl]boronic Acid], in that order: 0.5 to 5 µM, under 0.05 µM and “+++ (70 ≤ 100)”.
On to `C=CC(=O)N(CC)CC(=O)N[C@H](Cc1ccsc1)B(O)O` [Compound No. 76, [(1S)-1-[[2-[ethyl(prop-2-enoyl)amino]acetyl]amino]-2-(3-thienyl)ethyl]boronic Acid], for which the figures for the IC50 in test [1] (long incubation (120 min)) and in test [2] (long incubation (120 min)) were over 5 µM and 0.5 to 5 µM, respectively. The “Selectivity LMP7 vs Beta5” value in test [2] (setting [4]) was “+ (Selectivity < 50)”.
Turning to `C=CC(=O)N(CC(=O)N[C@@H](Cc1ccc(C)cc1C)B(O)O)C(C)C` [Compound No. 27, [(1R)-2-(2,4-dimethylphenyl)-1-[[2-[isopropyl(prop-2-enoyl)amino]-acetyl]amino]ethyl]boronic Acid], the IC50 was over 5 µM in test [1] (incubation for 20 minutes) and 0.05 to 0.5 µM in test [2] (incubation for 20 minutes). Further, the “Selectivity LMP7 vs Beta5” value in test [2] (setting [3]) is on record as “+++ (70 ≤ 100)”.
On to `C=CC(=O)N(CC(=O)N[C@@H](Cc1ccsc1)B(O)O)c1cccc(CC)c1` [Compound No. 94, [(1R)-1-[[2-(3-ethyl-N-prop-2-enoyl-anilino)acetyl]amino]-2-(3-thienyl)ethyl]boronic Acid], for which the IC50 in test [1] (long incubation (120 min)) is over 5 µM; in test [2] (long incubation (120 min)), under 0.05 µM. Further, the “Selectivity LMP7 vs Beta5” value in test [2] (setting [4]) is reported as “+++++ (Selectivity ≥ 150)”.
In the case of `C=CC(=O)N(C)CC(=O)N[C@H](Cc1ccsc1)B(O)O` [Compound No. 73, [(1S)-1-[[2-[methyl(prop-2-enoyl)amino]acetyl]amino]-2-(3-thienyl)ethyl]boronic Acid], the IC50 was over 5 µM in test [1] (long incubation (120 min)) and 0.5 to 5 µM in test [2] (long incubation (120 min)). Moreover, the “Selectivity LMP7 vs Beta5” value in test [2] (setting [4]) is reported as “++ (50 ≤ Selectivity < 70)”.
